Assay results taken from US5525742A, “Azidophenylcyanoguanidines as photoaffinity probes” (The Upjohn Company, priority 1994, dated 1996).
Values joined by “and” are separate entries in the source; they are usually repeats but may differ in a detail not shown here. Equal values may be shown once.

Legend:
[1] = system: cyanoguanidine binding proteins; experiment: Photolabeling of cyanoguanidine binding proteins in A10 cells (SDS gel, autoradiography); design: species or system rat; details: for apparent molecular weight of the most prominent radiolabeled protein / number of radiolabeled proteins / molecular weight of radiolabeled protein: A10 membrane extracts, UV light
Method: (§1) To biochemically identify the proteins that specifically bind the azidophenylcyanguanidines, Example 1a, Example 2a and Example 3a were prepared. A10 cells were grown to confluence in standard culture plates and then washed extensively with EBSS-H. After the final wash, the cells were placed in EBSS-H containing one of the radiolabeled forms of the azidophenylcyanguanidine to be tested. The A10 cells were equilibrated with the radiolabeled compound for 15 minutes at 37° C. The A10 cells were placed on ice and exposed for 1 minute to 600 μwatts/cm^2 of 254 nm UV light. After photolysis, the A10 cells were washed extensively with phosphate buffered saline. Membranes from the A10 cells were solubilized in cocktail of 0.2% Triton X100 detergent and protease inhibitors. The membranes were precipitated with 4 volumes of ice cold acetone for 30 minutes. The precipitate membrane proteins were collected by centrifugation at 20,000 rpm for 30 rain at 4° C. in a Beckman SW-28 rotor. After centrifugation the supernate was discarded and the pellet was dissolved 2% sodium dodecyl sulfate (SDS) as described by O'Farrell (J. Biol. Chem. 250:4007-4021, 1975). The radiolabeled proteins were resolved on an SDS polyacrylamide gel and identified by autoradiography after the gel was stained and dried.

[2] = molecular target: T1, KATP channel in A10 rat aortic smooth muscle cells (Rattus norvegicus, UniProt Q63563); experiment: A10 membrane potential assay (DiBAC4(3) fluorescence), KATP channel opening; type: cell-based; details: for block of the hyperpolarizing effect by glyburide: 10 μM glyburide; for block of the hyperpolarizing effect by glyburide / EC50: A10 cells; for EC50: hyperpolarization of membrane potential; for potency relative to N-cyano-N'-(1,1-dimethylpropyl)-N''-3-pyridinylguanidine: A10 membrane potential assay
T1 construct: resting membrane potential of A10 rat aortic smooth muscle cells; host or cells: A10 rat aortic smooth muscle cells
T1 sequence (Q63563 1-1545 isoform Q63563-2): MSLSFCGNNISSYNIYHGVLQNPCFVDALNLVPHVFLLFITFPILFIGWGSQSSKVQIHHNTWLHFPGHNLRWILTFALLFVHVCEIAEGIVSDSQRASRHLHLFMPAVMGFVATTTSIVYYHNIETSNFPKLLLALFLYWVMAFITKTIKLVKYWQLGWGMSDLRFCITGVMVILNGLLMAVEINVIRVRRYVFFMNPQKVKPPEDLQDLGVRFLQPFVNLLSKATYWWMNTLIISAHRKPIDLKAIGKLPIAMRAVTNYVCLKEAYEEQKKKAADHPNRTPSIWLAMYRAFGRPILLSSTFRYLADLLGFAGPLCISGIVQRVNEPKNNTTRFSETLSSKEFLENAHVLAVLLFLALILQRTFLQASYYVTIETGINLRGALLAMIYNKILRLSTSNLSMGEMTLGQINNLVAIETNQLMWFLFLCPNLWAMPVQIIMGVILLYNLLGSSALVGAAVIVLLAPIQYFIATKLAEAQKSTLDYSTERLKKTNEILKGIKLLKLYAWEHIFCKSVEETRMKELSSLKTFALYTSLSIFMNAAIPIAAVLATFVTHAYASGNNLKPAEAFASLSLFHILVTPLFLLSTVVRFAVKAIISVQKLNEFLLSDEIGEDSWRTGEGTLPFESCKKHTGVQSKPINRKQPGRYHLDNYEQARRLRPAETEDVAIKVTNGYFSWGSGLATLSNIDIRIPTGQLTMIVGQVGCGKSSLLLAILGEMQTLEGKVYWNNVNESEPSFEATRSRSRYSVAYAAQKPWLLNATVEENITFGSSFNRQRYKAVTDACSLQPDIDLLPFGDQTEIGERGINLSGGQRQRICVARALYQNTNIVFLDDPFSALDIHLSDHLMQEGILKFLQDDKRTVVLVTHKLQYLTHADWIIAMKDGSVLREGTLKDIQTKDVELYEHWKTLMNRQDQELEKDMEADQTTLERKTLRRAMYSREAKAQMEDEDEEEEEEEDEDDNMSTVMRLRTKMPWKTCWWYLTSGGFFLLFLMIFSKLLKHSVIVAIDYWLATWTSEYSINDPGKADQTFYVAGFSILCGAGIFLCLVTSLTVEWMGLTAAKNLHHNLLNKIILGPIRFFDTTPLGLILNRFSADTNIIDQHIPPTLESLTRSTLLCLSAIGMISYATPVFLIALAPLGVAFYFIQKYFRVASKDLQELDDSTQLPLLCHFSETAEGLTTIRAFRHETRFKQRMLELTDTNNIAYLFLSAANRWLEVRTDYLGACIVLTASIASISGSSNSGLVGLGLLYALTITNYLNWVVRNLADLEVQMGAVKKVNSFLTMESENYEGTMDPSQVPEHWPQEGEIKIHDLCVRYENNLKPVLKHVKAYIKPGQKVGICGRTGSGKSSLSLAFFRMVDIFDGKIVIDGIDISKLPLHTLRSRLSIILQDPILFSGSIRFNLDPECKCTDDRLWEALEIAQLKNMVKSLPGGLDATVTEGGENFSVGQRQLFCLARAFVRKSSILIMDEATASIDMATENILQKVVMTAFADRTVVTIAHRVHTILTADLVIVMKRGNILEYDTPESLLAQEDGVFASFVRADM
T1 sequence (Q63664 whole entry partner): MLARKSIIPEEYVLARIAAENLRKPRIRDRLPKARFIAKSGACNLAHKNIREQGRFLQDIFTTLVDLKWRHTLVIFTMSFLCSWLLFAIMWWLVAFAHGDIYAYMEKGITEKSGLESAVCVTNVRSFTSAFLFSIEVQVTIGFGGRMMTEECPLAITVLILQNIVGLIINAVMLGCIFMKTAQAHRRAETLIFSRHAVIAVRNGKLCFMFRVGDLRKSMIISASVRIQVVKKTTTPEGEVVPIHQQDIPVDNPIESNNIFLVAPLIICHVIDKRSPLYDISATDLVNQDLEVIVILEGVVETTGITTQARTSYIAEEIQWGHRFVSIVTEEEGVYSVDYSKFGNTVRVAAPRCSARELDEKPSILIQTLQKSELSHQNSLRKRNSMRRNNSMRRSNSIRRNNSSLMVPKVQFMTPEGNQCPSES
Text: (§2) Compounds that modulate KATP channel activity were examined by quantitating the effect of these compounds on the resting membrane potential of A10 rat aortic smooth muscle cells (American Type Culture Collection, number CRL-1476) using a fluorescent, potentialsensitive dye and an instrument to measure changes in cellular fluorescence. The dye of choice is bis(1,3-dibutylbarbituric acid)trimethine oxonol) DiBAC4 (3). Other voltage sensitive dyes could also be used. To optically measure changes in membrane potential, cells were subcultured onto coverglass chambers and grown to confluence. Immediately prior to analysis, cells were washed several times with Earle's balanced salt solution that was buffered to pH 7.4 with 20 mM Hepes (EBSS-H) and then placed in the buffer containing 5 μM DiBAC4 (3). Fluorescent imaging of membrane potential was carried out after the cells were equilibrated with 5 μM DiBAC4 (3) for at least 15 min at 37° C. and then placed in a 35° C. temperature-regulated mini-incubator that was mounted on the stage of laser based imaging cytometer (ACAS 570, Meridian Instruments). The ACAS 570 was configured to excite the cells at 488 nm using an argon ion laser. The fluorescent emission was monitored at 525 nm. To determine the effect of azidophenylcyanoguanidines on membrane potential, the ACAS 570 was configured to collect data once every 60 seconds for at least 25 minutes using the Kinetic program within the ACAS software. In all cases, 7 min. of baseline data were collected before the addition of the compound of interest. Changes in membrane potential were computed using a logistical model developed at Upjohn Laboratories. Control experiments established that solvents such as dimethylsulfoxide and ethanol had no effect at concentrations up to 0.8%.
In FIG. 1 the Y axis represents the change in membrane potential elicited by N-cyano-N'-(1,1-dimethylpropyl)-N''-3-pyridinylguanidine. A positive change represents a hyperpolarization of the membrane potential caused by an opening of a KATP channel. The X axis represents increasing concentrations of N-cyano-N'-(1,1-dimethylpropyl)-N''-3-pyridinylguanidine. […] The EC50 for N-cyano-N'-(1,1-dimethylpropyl)-N''-3-pyridinylguanidine in the A10 membrane potential assay is 30 nM. […] In FIG. 2 the Y axis represents change in membrane potential elicited by Example 1. A positive change represents a hyperpolarization of the membrane potential caused by an opening of a KATP channel. The X axis represents increasing concentrations of Example 1. Example 1 is structurally related to N-cyano-N'-(1,1-dimethylpropyl)-N''-3-pyridinylguanidine and has an EC50 of approximately 30 nM in the A10 assay. […] In FIG. 3 the Y axis represents the change in membrane potential elicited by Example 2. A positive change represents a hyperpolarization of the membrane potential caused by an opening of a KATP channel. The X axis represents increasing concentrations of Example 2. Example 2 is structurally related to N-cyano-N'-(1,1-dimethylpropyl)-N''-3-pyridinylguanidine and has an EC50 of approximately 30 nM in the A10 assay.
In FIG. 4A and 4B the Y axis represents a change in membrane potential. In these experiments, a change in the negative direction represents a hyperpolarization of the membrane potential caused by an opening of a KATP channel. In FIG. 4A and 4B the X axis represents time in minutes. Additional experiments indicate that 0.3 and 1.0 μM Example 3 also have no effect on the membrane potential of A10 cells (data not shown). […] Thus, within the azidophenylcyanoguanidine chemical series there are compounds that can be used to identify the cellular components required to open and close KATP close channels.

[3] = system: KATP channel in A10 cells; experiment: Photoinactivation of KATP channels in A10 cells (UV pretreatment, then opener challenge); type: cell-based, rat; details: for responsiveness to N-cyano-N'-(1,1-dimethylpropyl)-N''-3-pyridinylguanidine challenge after pretreatment and UV light: UV 254 nm, 1 min, challenge 1 μM, FIG. 5; for photoinactivation of the A10 KATP channel: compound and UV light
Text: as §2
Photoinactivation of KATP channels in A10 cells was carried out on cells grown on coverglass chambers. A10 cells were grown to confluence and washed 3 times with EBSS-H. The A10 cells were then equilibrated for 15 min at 37° C. with 100 nM to 30 μM of the azidophenyl-cyanoguanidines. The A10 cells were exposed to 600 μwatts/cm^2 of 254 nm light for 1 min to photoactivate these azidophenyl-cyanoguanidines. After photolysis, the A10 cells were extensively washed with EBSS-H and finally placed in EBSS-H containing 5 μM DiBAC4 (3). The pretreated cells were then challenged with 1 μM N-cyano-N'-(1,1-dimethylpropyl)-N.increment.-3-pyridinylguanidine and changes in membrane potential were measured as described in Section I, above, ASSAY OF KATP CHANNEL MODULATORS. If the KATP channels in A10 cells were covalently photoinactivated by the azidophenyl-cyanoguanidines, then the cells would be unresponsive to the subsequent challenge of KATP openers such as N-cyano-N'-(1,1-dimethylpropyl)-N''-3-pyridinylguanidine. […]

[4] = molecular target: T1, KATP channel in A10 rat aortic smooth muscle cells; experiment: Reversal/block of N-cyano-N'-(1,1-dimethylpropyl)-N''-3-pyridinylguanidine-dependent KATP channel opening in A10 cells (membrane potential); type: cell-based
Text: as §2
In FIG. 4A and 4B the Y axis represents a change in membrane potential. In these experiments, a change in the negative direction represents a hyperpolarization of the membrane potential caused by an opening of a KATP channel. In FIG. 4A and 4B the X axis represents time in minutes. […]

37 kilodalton protein = experiment: Competition of photolabeling of the 37 kilodalton protein by nonradiolabeled compound; type: binding, rat; details: nonradiolabeled Example 3, 1 nM to 30 uM
Method: as §1
(§3) There was also a 27 kilodalton protein that was radiolabeled by Example 3a and UV light.

27 kilodalton protein = experiment: Competition of photolabeling of the 27 kilodalton protein by nonradiolabeled compound; type: binding, rat; details: nonradiolabeled Example 3, 1 nM to 30 uM
Method: as §1, §3

56 kilodalton protein = experiment: Competition of photolabeling of the 56 kilodalton protein by nonradiolabeled compound; type: binding, rat; details: nonradiolabeled Example 2, 1 nM to 30 uM
Method: as §1, with “dried. […]” for “dried.”

47 kilodalton protein = experiment: Competition of photolabeling of the 47 kilodalton protein by nonradiolabeled compound; type: binding, rat
Method: as §1, with “dried. […]” for “dried.”

[5] = system: calcium-activated potassium channel; experiment: Responsiveness of photoinactivated A10 cells to agents that open the calcium-activated potassium channel; type: cell-based, rat; details: maximum concentration and UV light

## [3H]C([3H])([3H])C([3H])([3H])C(C)(C)NC(=NC#N)Nc1cc(Cl)cc(N=[N+]=[N-])c1 [Example 1a, N-(3-azido-5-chlorophenyl)-N'-cyano-N''-(1,1-dimethyl-2,2,3,3,3-T5-propyl)guanidine]
[1]
  apparent molecular weight of the most prominent radiolabeled protein: 47 kilodaltons
  number of radiolabeled proteins: several radiolabeled proteins
[1]; no UV light, control experiments
  labeling in the absence of UV light: no proteins were labeled

## CCC(C)(C)NC(=Nc1cccnc1)NC#N [N-cyano-N'-(1,1-dimethylpropyl)-N''-3-pyridinylguanidine, reference compound]
[2]; 1 μM, FIG. 4B
  opening of the A10 KATP channel with hyperpolarization: opens the A10 KATP channel
[2]; data not shown
  block of the hyperpolarizing effect by glyburide: blocked
[2]
  EC50: 30 nM
[3]
  responsiveness to N-cyano-N'-(1,1-dimethylpropyl)-N''-3-pyridinylguanidine challenge after pretreatment and UV light: remain nearly completely responsive

## N#CNC(=NC1(c2cccc(F)c2)CCC1)Nc1cc(I)cc(N=[N+]=[N-])c1 [Example 3, N-(3-azido-5-iodophenyl)-N'-cyano-N"-(1-(3-fluorophenyl)cyclobutyl)guanidine]
[4]; 10 μM, in continuing presence of 1 μM opener, FIG. 4B
  reversal of the effect of N-cyano-N'-(1,1-dimethylpropyl)-N''-3-pyridinylguanidine: reverses the effect
[4]; additional experiments, concentration dependence
  block of opener-dependent opening of KATP channels: in a concentration dependent manner
[4]; conclusion from the data
  mode of action on the KATP channel in A10 cells: blocker of the KATP channel
37 kilodalton protein
  inhibition of radiolabeling of the 37 kilodalton protein by Example 3a: specifically inhibited
[2]; 0.3 μM, data not shown
  effect on the membrane potential of A10 cells: no effect
[2]; 1.0 μM, data not shown
  effect on the membrane potential of A10 cells: no effect
[2]; 10 μM, FIG. 4A
  effect on the membrane potential of A10 cells: no effect
27 kilodalton protein
  inhibition of radiolabeling of the 27 kilodalton protein by Example 3a: specifically inhibited

## N#CN=C(Nc1cc([125I])cc(N=[N+]=[N-])c1)NC1(c2cccc(F)c2)CCC1 [Example 3a, N-(3-azido-5-iodo-125I-phenyl)-N'-cyano-N''-[1-(3-fluorophenyl)cyclobutyl]guanidine]
[1]
  apparent molecular weight of the most prominent radiolabeled protein: 37 kilodaltons
  molecular weight of radiolabeled protein: 27 kilodalton
  number of radiolabeled proteins: several radiolabeled proteins

## CCC(C)(C)N=C(NC#N)Nc1cc(I)cc(N=[N+]=[N-])c1 [Example 2, N-(3-azido-5-iodophenyl)-N'-cyano-N''-(1,1-dimethylpropyl)guanidine]
[2]; data not shown
  block of the hyperpolarizing effect by glyburide: blocked
[2]
  EC50: ~30 nM
  potency relative to N-cyano-N'-(1,1-dimethylpropyl)-N''-3-pyridinylguanidine: as potent as
[3]
  photoinactivation of the A10 KATP channel: specifically photoinactivated the A10 KATP channel
56 kilodalton protein
  inhibition of radiolabeling of the 56 kilodalton protein by Example 2a: specifically inhibited
47 kilodalton protein; nonradiolabeled Example 2, 1 nM to 30 uM
  inhibition of radiolabeling of the 47 kilodalton protein by Example 2a: specifically inhibited
[5]
  responsiveness to agents that open the calcium-activated potassium channel after pretreatment: remained responsive

## CCC(C)(C)NC(=NC#N)Nc1cc([125I])cc(N=[N+]=[N-])c1 [Example 2a, N-(3-azido-5-iodo-^125 I-phenyl)-N'-cyano-N''-(1,1-dimethylpropyl) guanidine]
[1]
  molecular weight of radiolabeled protein: 47 kilodalton and 56 kilodalton

## CCC(C)(C)N=C(NC#N)Nc1cc(Cl)cc(N=[N+]=[N-])c1 [Example 1, N-(3-azido-5-chlorophenyl)-N'-cyano-N"-(1,1-dimethylpropyl)guanidine]
[2]; data not shown
  block of the hyperpolarizing effect by glyburide: blocked
[2]
  EC50: ~30 nM
  potency relative to N-cyano-N'-(1,1-dimethylpropyl)-N''-3-pyridinylguanidine: as potent as
[3]
  responsiveness to N-cyano-N'-(1,1-dimethylpropyl)-N''-3-pyridinylguanidine challenge after pretreatment and UV light: concentration dependent loss
  photoinactivation of the A10 KATP channel: specifically photoinactivated the A10 KATP channel
47 kilodalton protein; nonradiolabeled Example 1, 30 nM to 30 uM
  inhibition of radiolabeling of the 47 kilodalton protein by Example 1a: specifically inhibited
[5]
  responsiveness to agents that open the calcium-activated potassium channel after pretreatment: remained responsive
